From US12053465B2, “KCC2 expression enhancing compounds and uses thereof” (Whitehead Institute for Biomedical Research, priority 2017, dated 2024)

Experiments:
[1] = system: KCC2 expression; assay: Western blot of KCC2 in cultured human RTT neurons; format: cell-based
Description: Protein samples were collected from cultured brain slices or cultured neurons in 12-well format with RIPA lysis buffer (in mM: 150 NaCl, 25 Tris-HCl, 1 EDTA, 1% NP-40, 1% sodium deoxycholate, 0.1% SDS, with protein kinase inhibitor and protease inhibitor, pH adjusted to 7.6). A sonication step was applied to homogenize tissue and extract protein, followed by a 10 minute centrifugation at 4° C. […] The PVDF membrane was blocked for 30 minutes with 5% milk in TBS+0.1% Tween 20 (TBST), and incubated overnight at 4° C. with primary antibodies diluted in TBST-milk at the following concentrations: KCC2 (1:2000, Millipore), NKCC1 (1:1000, Iowa Hybridoma bank), α-Tubulin (1:4000, Abcam), GAPDH (1:3000, Abcam), Actin (1:2000, Sigma Aldrich #A2066). The membrane was rinsed with TBST three times to wash off excess antibodies, and then incubated in secondary HRP antibodies in TBST-milk at 1:5000 concentration.
The PVDF membrane was then stripped using the Re-blot plus strong solution (Millipore), and re-immunoblotted for NKCC1 (˜150 kDa) to acquire KCC2/NKCC1 ratio. The area and intensity of protein signal was determined using ImageJ. The relative KCC2 and NKCC1 expression were calculated by normalizing protein signal to GAPDH or Tubulin loading control.

[2] = system: NKCC1 mRNA; assay: Quantitative RT-PCR of NKCC1 mRNA in organotypic mouse brain slices; format: cell-based
Description: (§1) Brain slices were also treated with the FLT3 inhibitors Crenolanib and XL-184. […] To assess whether increased KCC2 protein levels were due to increased gene transcription or enhanced protein stability, quantitative RT-PCR experiments were performed to measure the KCC2 mRNA level in KEEC-treated brain slices. […] In contrast, the expression of NKCC1, a chloride transporter that antagonizes KCC2 activity by shuttling Cl^− into the cell (44), was decreased by treatment with KEEC compounds (FIG. 8F).
(§2) Brain slice cultures were prepared from P1 neonatal mouse according to a protocol described by Antonio del Rio et al., Nature Protocols, 2010. Cerebrum slices (1 mm in thickness) were prepared from neonatal mouse brain, and were transferred to 6-well culture inserts with the pore size of 0.4 μm. The insert was placed in 6-well plates with 1 ml of culture medium. Three days after the initial culture, compounds and DMSO control were added to the medium. Alternately, in some experiments, brain slice cultures were prepared from P3 neonatal mouse according to a protocol described by Antonio del Rio et al., Nature Protocols, 2010. Cerebrum slices (1 mm in thickness) were prepared from neonatal mouse brain, and were transferred to 6-well culture inserts with the pore size of 0.4 μm. The insert was placed in 6-well plates with 1 ml of culture medium. The day after the initial culture, compounds and DMSO control were added to the medium. The medium with fresh compounds was used to replace old medium every other day. One week after drug treatment, the brain slices were harvested for Western blot or qRT-PCR analysis.
(§3) To prepare RNA samples from cultured organotypic brain slice, tissue samples were homogenized by passing through a 23 gauge needle for a number of times. Total RNA was extracted with Omega Total RNA kit and was reverse-transcribed into cDNA using the Invitrogen Superscript RT system and Oligo dT primer. SYBR green-based quantitative RT-PCR assay was performed to detect for the abundance of specific mRNA transcripts. The primer sequence for the detection of KCC2 expression in mouse brain samples are as follows: KCC2-Forward: […] (SEQ ID NO: 2); KCC2-Reverse: […] (SEQ ID NO: 3). The primer sequence for detection of NKCC1 mRNA are as follows: NKCC1-Forward: […] (SEQ ID NO: 3); NKCC1-Reverse: […] (SEQ ID NO: 4). The gene expression was calculated by normalizing the KCC2 data with the expression of housekeeping gene HDAC2 in every sample. HDAC2 expression was detected using the following primers: HDAC2-Forward: […] (SEQ ID NO: 5); HDAC2-Reverse: […] (SEQ ID NO: 6). Relative gene expression levels were calculated by normalizing KCC2 or NKCC1 expression in drug-treated groups with that in DMSO controls with the housekeeping gene HDAC being used as internal control.

[3] = system: KCC2 mRNA; assay: Quantitative RT-PCR of KCC2 mRNA in organotypic mouse brain slices; format: cell-based
Description: as §1, §2, §3

[4] = system: KCC2 expression; assay: Western blot of KCC2 in cultured WT human neurons; format: cell-based; settings: cultured WT human neurons (WIBR1); Western blot
[5] = system: KCC2 expression; assay: Western blot of KCC2 in organotypic mouse brain slices; format: cell-based; settings: organotypic neonatal mouse brain slices, treated 7 days, vs DMSO, MeBIO or medium-only control
[6] = system: KCC2 expression (KCC2-2A-luciferase reporter); assay: KCC2-2A-luciferase reporter compound screening with RTT KCC2 reporter neurons; format: cell-based, human; settings: for B Score: MECP2-null RTT human KCC2 reporter neurons, LINCS, SMART, ICCB libraries, Luc/CTG normalized to in-plate DMSO, hit = B score >3
Description: The RTT KCC2-2A-luciferase reporter neurons were treated with the test compounds from the LINCS kinase inhibitor library and IRSF SMART compound library and incubated before being lysed. The cell lysate was divided into two parts to measure luciferase signal (KCC2 translation) and Cell-Titer Glow (CTG, amount of ATP). The luciferase signal was normalized to CTG for each well, and the Luc/CTG ratio was normalized to the in-plate DMSO negative control to calculate fold change ratio.
Additional screens for reporter activation in the MECP2-null RTT human KCC2 reporter neurons (isogenic to the WT reporter cells used above) were performed with the LINCS and SMART libraries as well as the ICCB known bioactive library and identified hits as compounds with B score >3.
The cells were dissociated with Accutase and resuspended in 10 ml neuronal differentiation medium to count cells. The cells were then diluted to the final density of 200,000 to 500,000 cells/ml. Matrigel was added to the cell suspension at a dilution ratio of 1:300 to promote cell adhesion after plating. AraC was added to cell suspension at the concentration of 2 μM to inhibit cell division. The cells were plated into 96-well plates with an automated cell seeding machine using the following protocol: The neuron flask was washed with PBS. The neurons were digested off the plate with Accutase for 30 minutes at 37° C. Next, the dissociated cells were collected and spun down at 750 rpm for 5 minutes. The cell pellet was dissociated by gentle trituration with P1000 pipet and the cells were resuspended with 10 ml of neuronal medium. Then, the cells were filtered through a 40 μm cell strainer (Falcon) to get rid of clumps. The resulting single-cell suspension was counted using a Countess automated cell counter (Invitrogen Countess Automated Cell Counter, Catalog no. C10227). The neurons were resuspended with neuronal medium to 10× of the destination density (100,000 cells to 400,000 cells per ml). The cells were plated with a multichannel pipette, or proceeded to the machine-plating protocol described below:
The day after cell seeding, small molecule compounds from the IRSF (International Rett Syndrome Foundation) library were prepared at a concentration of 1 mM and dispensed into a blank V-bottomed test plates at 2 μl per well. Compound solvent DMSO was included in every plate as control. Using a liquid handling robot, about 80 μl of culture medium were discarded. Neuronal medium in the volume of 200 μl was added to the V-bottom test plate that contained 2 μl of 1 mM compounds, and mixed with compounds by pipetting up-and-down 3 times. The medium that contained the 10 μM compounds was then applied to the neuronal cell culture and incubated for 2 weeks before cell lysis and luciferase assay were performed.
The cells were dissociated with Accutase, resuspended in 10 ml neuronal differentiation medium to count cells. the final cell seeding density was 20 k-40 k cells per well for 96-well plates, and ˜10 k cells per well for 384-well plates. Matrigel was added to the cell suspension at a dilution ratio of 1:300 to promote cell adhesion after plating. AraC were added to the cell suspension at the concentration of 0.5 μM to inhibit astroglial cell division. The cells were dispensed into 96-well or 384-well plates (Coming) using a BioTek EL406 plate dispenser. […] The neurons were incubated with the compounds at 37° C./5% CO2 for a week before the luciferase assay.
The cells used for luciferase assay were KCC2 reporter neurons differentiated for 4 weeks, and treated with drug in 96-well format for 2 weeks. Cell density was between 20 k-40 k cells per well.
On the day of the luciferase assay, the cells were washed with PBS for two times, and 100 μl of cell lysis buffer was applied to the washed cells. The cell plates were transferred to a rocker to shake for 10 minutes in order to fully lyse the cells.

[7] = system: immature mouse neurons; assay: Gramicidin-perforated patch recording of EGABA in DIV6-7 immature mouse neurons; format: cell-based
[8] = system: NRSF/REST; settings: glioblastoma cell line; via SIRT1 pathway (49); cited from earlier work
[9] = system: REST; assay: Western blot of REST in cultured human RTT neurons; format: cell-based
From the text: Two hit compounds Resveratrol and Piperine act on different pathways than the kinase inhibitors, activating the Sirtuin 1 (SIRT1) (49) and the transient receptor potential cation channel subfamily V member 1 (TRPV1) (50) signaling pathways, respectively.
Protein samples were collected from cultured brain slices or cultured neurons in 12-well format with RIPA lysis buffer (in mM: 150 NaCl, 25 Tris-HCl, 1 EDTA, 1% NP-40, 1% sodium deoxycholate, 0.1% SDS, with protein kinase inhibitor and protease inhibitor, pH adjusted to 7.6). A sonication step was applied to homogenize tissue and extract protein, followed by a 10 minute centrifugation at 4° C. The protein samples were mixed with NuPAGE LDS sample buffer, heated at 95° C. for 10 minutes, and then separated on NuPAGE 4-12% Bis-Tris gel and transferred to PVDF membrane. The PVDF membrane was blocked for 30 minutes with 5% milk in TBS+0.1% Tween 20 (TBST), and incubated overnight at 4° C. with primary antibodies diluted in TBST-milk at the following concentrations: KCC2 (1:2000, Millipore), NKCC1 (1:1000, Iowa Hybridoma bank), α-Tubulin (1:4000, Abcam), GAPDH (1:3000, Abcam), Actin (1:2000, Sigma Aldrich #A2066). The membrane was rinsed with TBST three times to wash off excess antibodies, and then incubated in secondary HRP antibodies in TBST-milk at 1:5000 concentration.

[10] = cultured human RTT neurons, Western blot
[11] = co-applied with EX-527 below the threshold for SIRT1 pathway inhibition
[12] = in the presence of a high concentration of SIRT1 pathway blocker EX-527, vs DMSO control

Compound | KCC2 expression [1, 10] | NKCC1 mRNA level [2] | KCC2 mRNA level [3] | KCC2 expression [4] | KCC2 protein level [5] | B Score [6] | EGABA after treatment ([7]; DIV6-7 immature mouse neurons, untreated about −50 mV) | significant hyperpolarizing shift in EGABA ([7]; DIV6 cultured immature mouse neurons) | KCC2 expression [1, 11] | concentration at which treatment significantly increases KCC2 expression ([1]; cultured ESC-derived human RTT neurons, Western blot) [µM] | KCC2 expression [1, 12] | KCC2 reporter activity in RTT neurons ([6]; RTT KCC2-2A-luciferase reporter neurons vs in-plate DMSO) | expression of NRSF/REST [8] | level of REST [9, 11] | REST expression [9, 12]
O=C1Nc2ccccc2/C1=C1/Nc2ccccc2/C1=N\O [Indirubin-monoxime, (2Z,3E)-3-(hydroxyimino)-[2,3′-biindolinylidene]-2′-one] | increased KCC2 expression levels significantly | significant reduction in NKCC1 mRNA level | significantly increased KCC2 expression |  |  |  |  |  |  |  |  |  |  |  | 
CCN(CC)CCNC(=O)c1c(C)[nH]c(/C=C2\C(=O)Nc3ccc(F)cc32)c1C [Sunitinib, N-(2-diethylaminoethyl)-5-[(Z)-(5-fluoro-2-oxo-1H-indol-3-ylidene)methyl]-2,4-dimethyl-1H-pyrrole-3-carboxamide] |  | significant reduction in NKCC1 mRNA level | significantly increased KCC2 expression | significant enhancement of KCC2 expression |  |  |  |  |  |  |  |  |  |  | 
CC1(COc2ccc3c(c2)ncn3-c2ccc3cccc(N4CCC(N)CC4)c3n2)COC1 [Crenolanib, 1-(2-{5-[(3-Methyloxetan-3-yl)methoxy]-1H-benzimidazol-1-yl}quinolin-8-yl)piperidin-4-amine] | significant enhancement of KCC2 expression | significant reduction in NKCC1 mRNA level | significantly increased KCC2 expression | significant enhancement of KCC2 expression | significantly increased the KCC2 protein level |  |  |  |  |  |  |  |  |  | 
COc1cc2nccc(Oc3ccc(NC(=O)C4(C(=O)Nc5ccc(F)cc5)CC4)cc3)c2cc1OC [XL-184, N′-[4-[(6,7-dimethoxy-4-quinolinyl)oxy]phenyl]-N-(4-fluorophenyl)-1,1-cyclopropanedicarboxamide] | significant enhancement of KCC2 expression | significant reduction in NKCC1 mRNA level | significantly increased KCC2 expression | significant enhancement of KCC2 expression | significantly increased the KCC2 protein level | 3.25 | about −70 mV | induces significant hyperpolarizing shift in EGABA |  |  |  |  |  |  | 
Oc1ccc(/C=C/c2cc(O)cc(O)c2)cc1 [Resveratrol, 3,5,4'-trihydroxy-trans-stilbene] | increase KCC2 expression |  |  |  |  | 12.65 |  |  | substantial increase in KCC2 expression | 10 | neither KCC2 nor REST was changed | significant increase of KCC2 reporter activity | reduces expression of the neuronal gene repressor NRSF/REST | reduction in the level of REST | neither KCC2 nor REST was changed
